Several values for one entry are separate records, joined by “and”; a condition that tells them apart may be missing. Identical values can stand only once. Inconclusive results and toxic doses are left out. Peptide text beside a SMILES is read from it. * marks the point of attachment. Cbz = O=C(OCc1ccccc1)*; Bn = c1ccc(C*)cc1

For the experiment, the system named is L1210 leukemia ip in BDF1 mice, survival T/C. Nature of the experiment: NCI In Vivo Anticancer Drug Screen. Data for tumor model L1210 Leukemia (intraperitoneal) in B6D2F1 (BDF1) mice. To be noted: endpoint: mean survival time, higher = longer survival. Put shortly:
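Antitumor effect is assessed in tumor-bearing animals. Survival in the compound arm is compared with a vehicle-dosed control arm and expressed as their quotient.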

Where [1] appears, read: dose: 100.0 mg/kg/injection, schedule: Q04DX003 (ip), vehicle: saline.
Where [2] appears, read: dose: 200.0 mg/kg/injection, schedule: Q04DX003 (ip), vehicle: saline.
The mark [3] stands for this setting: dose: 100.0 mg/kg/injection, schedule: Q01DX009 (ip), vehicle: saline with Tween-80.
The mark [4] stands for this setting: dose: 100.0 mg/kg/injection, schedule: Q04DX003 (ip), vehicle: saline with Tween-80.
Where [5] appears, read: dose: 200.0 mg/kg/injection, schedule: Q01DX009 (ip), vehicle: saline with Tween-80.
[6] abbreviates: dose: 200.0 mg/kg/injection, schedule: Q04DX003 (ip), vehicle: saline with Tween-80.
[7] abbreviates: dose: 400.0 mg/kg/injection, schedule: Q01DX009 (ip), vehicle: saline with Tween-80.
[8] abbreviates: dose: 400.0 mg/kg/injection, schedule: Q04DX003 (ip), vehicle: saline with Tween-80.
Setting [9] is: dose: 50.0 mg/kg/injection, schedule: Q01DX009 (ip), vehicle: saline with Tween-80.
Where [10] appears, read: dose: 400.0 mg/kg/injection, schedule: Q01DX001 (ip), vehicle: carboxymethylcellulose (CMC).

On to `COc1ccc(NC(=O)Nc2c(C)cccc2C)cc1`, for which the T/C is, setting by setting: (dose: 100.0 mg/kg/injection, schedule: Q01DX009 (ip), vehicle: gum acacia) 97 % of control; (dose: 100.0 mg/kg/injection, schedule: Q04DX003 (ip), vehicle: gum acacia) 97 % of control; (dose: 200.0 mg/kg/injection, schedule: Q01DX009 (ip), vehicle: gum acacia) 97 % of control; (dose: 200.0 mg/kg/injection, schedule: Q04DX003 (ip), vehicle: gum acacia) 92 % of control; (dose: 400.0 mg/kg/injection, schedule: Q01DX009 (ip), vehicle: gum acacia) 92 % of control; (dose: 400.0 mg/kg/injection, schedule: Q04DX003 (ip), vehicle: gum acacia) 91 % of control.

As for `COC(=O)C(Cc1ccc(O)cc1)NC(=O)C(CSCc1ccccc1)NC(=O)OCc1ccccc1` (stereo not drawn) (Cbz-Cys(Bn)-Tyr-OMe; configuration not given here), the T/C runs as follows: (dose: 100.0 mg/kg/injection, schedule: Q04DX003 (ip), vehicle: DMSO) 94 % of control; (dose: 200.0 mg/kg/injection, schedule: Q04DX003 (ip), vehicle: DMSO) 98 % of control; (dose: 400.0 mg/kg/injection, schedule: Q04DX003 (ip), vehicle: DMSO) 91 % of control.

Consider `C[n+]1cccc(C(=O)N/N=C/c2ccccc2)c1`, for which the T/C is, setting by setting: (dose: 100.0 mg/kg/injection, schedule: Q01DX001 (ip), vehicle: saline with Tween-80) 96 % of control; (dose: 200.0 mg/kg/injection, schedule: Q01DX001 (ip), vehicle: saline with Tween-80) 96 % of control; (dose: 400.0 mg/kg/injection, schedule: Q01DX001 (ip), vehicle: saline with Tween-80) 96 % of control.

`N#Cc1ncc(C(Cl)Cl)nc1Cl`: the T/C reads like this: under setting [1], 101 % of control; under setting [2], 92 % of control.

Turning to `CCN(CCNC(=O)NC(C)(C)C)c1ccccc1`, the T/C is, setting by setting: under setting [3], 115 % of control and 91 % of control; (dose: 100.0 mg/kg/injection, schedule: Q04DX002 (ip), vehicle: saline with Tween-80) 96 % of control and 100 % of control; under setting [4], 97 % of control; under setting [5], 97 % of control and 91 % of control; (dose: 200.0 mg/kg/injection, schedule: Q04DX002 (ip), vehicle: saline with Tween-80) 96 % of control and 97 % of control; under setting [6], 106 % of control. The T/C was 97 % of control and 88 % of control under setting [7]; 94 % of control and 89 % of control (dose: 400.0 mg/kg/injection, schedule: Q04DX002 (ip), vehicle: saline with Tween-80); 92 % of control under setting [8].

With `CC(=O)Nc1cc(C)c(C)cc1[N+](=O)[O-]`, the T/C reads like this: (dose: 100.0 mg/kg/injection, schedule: Q01DX009 (ip), vehicle: Klucel (hydroxypropylcellulose) (HPC)) 102 % of control; (dose: 100.0 mg/kg/injection, schedule: Q04DX003 (ip), vehicle: Klucel (hydroxypropylcellulose) (HPC)) 96 % of control; (dose: 200.0 mg/kg/injection, schedule: Q01DX009 (ip), vehicle: Klucel (hydroxypropylcellulose) (HPC)) 100 % of control; (dose: 200.0 mg/kg/injection, schedule: Q04DX003 (ip), vehicle: Klucel (hydroxypropylcellulose) (HPC)) 102 % of control; (dose: 400.0 mg/kg/injection, schedule: Q01DX009 (ip), vehicle: Klucel (hydroxypropylcellulose) (HPC)) 105 % of control; (dose: 400.0 mg/kg/injection, schedule: Q04DX003 (ip), vehicle: Klucel (hydroxypropylcellulose) (HPC)) 103 % of control.

Take `CCOC(=O)C(=O)C1CCCC1=O` (stereo not drawn): the T/C is 102 % of control under setting [3]; 92 % of control under setting [4]; 98 % of control under setting [5]; 100 % of control under setting [6]; 96 % of control under setting [7]; 94 % of control under setting [8].

With `[O-][n+]1ccc(Cl)c2ccsc21`, the T/C was 102 % of control under setting [9]; 96 % of control under setting [3]; 103 % of control under setting [4]; 101 % of control under setting [5]; 97 % of control under setting [6]; 98 % of control under setting [8].

With `COc1ccc2[nH]c(-c3ccccc3)cc2c1`, the T/C was 100 % of control (dose: 25.0 mg/kg/injection, schedule: Q01DX009 (ip), vehicle: saline with Tween-80); 108 % of control under setting [9]; 101 % of control under setting [3].

For `Nc1nc(N)nc(CCCCCc2nc(N)nc(N)n2)n1`, the T/C is, setting by setting: (dose: 50.0 mg/kg/injection, schedule: Q01DX001 (ip), vehicle: carboxymethylcellulose (CMC)) 93 % of control; (dose: 100.0 mg/kg/injection, schedule: Q01DX001 (ip), vehicle: carboxymethylcellulose (CMC)) 93 % of control; under setting [10], 95 % of control.

For the compound `c1ccc2nc(CCC3CCCCN3)ccc2c1` (stereo not drawn), the T/C (dose: 333.0 mg/kg/injection, schedule: Q01DX Z (ip), vehicle: methylcellulose (MC)) was 101 % of control.

Take `Clc1ccc(NC(Nc2ccc(Cl)c(Cl)c2)C(Cl)(Cl)Cl)cc1Cl`: the T/C reads like this: under setting [4], 101 % of control; under setting [6], 90 % of control.

On to `CC1=CCC2C(=O)C=CC(=O)C2C1` (stereo not drawn), for which the T/C by setting is: (dose: 5.0 mg/kg/injection, schedule: Q01DX009 (ip), vehicle: Klucel (hydroxypropylcellulose) (HPC)) 98 % of control; (dose: 10.0 mg/kg/injection, schedule: Q01DX001 (ip), vehicle: carboxymethylcellulose (CMC)) 107 % of control; (dose: 10.0 mg/kg/injection, schedule: Q01DX009 (ip), vehicle: Klucel (hydroxypropylcellulose) (HPC)) 89 % of control; (dose: 20.0 mg/kg/injection, schedule: Q01DX001 (ip), vehicle: carboxymethylcellulose (CMC)) 109 % of control; (dose: 20.0 mg/kg/injection, schedule: Q01DX009 (ip), vehicle: Klucel (hydroxypropylcellulose) (HPC)) 96 % of control; (dose: 40.0 mg/kg/injection, schedule: Q01DX001 (ip), vehicle: carboxymethylcellulose (CMC)) 107 % of control. In addition, the T/C (dose: 80.0 mg/kg/injection, schedule: Q01DX001 (ip), vehicle: carboxymethylcellulose (CMC)) was 109 % of control.

For the compound `C[n+]1ccc(/C(N)=N/O)cc1`, the T/C (dose: 25.0 mg/kg/injection, schedule: Q01DX009 (ip), vehicle: saline) was 94 % of control and 106 % of control; the T/C (dose: 50.0 mg/kg/injection, schedule: Q01DX009 (ip), vehicle: saline) is 104 % of control and 105 % of control; the T/C (dose: 100.0 mg/kg/injection, schedule: Q01DX009 (ip), vehicle: saline) is 101 % of control and 107 % of control; the T/C (dose: 100.0 mg/kg/injection, schedule: Q04DX002 (ip), vehicle: saline) was 105 % of control; the T/C under setting [1] is 101 % of control; the T/C (dose: 200.0 mg/kg/injection, schedule: Q04DX002 (ip), vehicle: saline) was 107 % of control. The T/C runs as follows: under setting [2], 97 % of control; (dose: 400.0 mg/kg/injection, schedule: Q04DX002 (ip), vehicle: saline) 96 % of control.

As to `Cc1ccc(NC(=O)N(CCI)N=O)cc1`, the T/C is, setting by setting: (dose: 17.0 mg/kg/injection, schedule: Q01DX015 (ip), vehicle: carboxymethylcellulose (CMC)) 110 % of control; (dose: 58.0 mg/kg/injection, schedule: Q01DX015 (ip), vehicle: carboxymethylcellulose (CMC)) 161 % of control; (dose: 88.0 mg/kg/injection, schedule: Q01DX015 (ip), vehicle: carboxymethylcellulose (CMC)) 157 % of control; (dose: 133.0 mg/kg/injection, schedule: Q01DX015 (ip), vehicle: carboxymethylcellulose (CMC)) 92 % of control; (dose: 177.0 mg/kg/injection, schedule: Q01DX001 (ip), vehicle: carboxymethylcellulose (CMC)) 121 % of control; (dose: 200.0 mg/kg/injection, schedule: Q01DX015 (ip), vehicle: carboxymethylcellulose (CMC)) 111 % of control and 113 % of control. Also, under setting [10], the T/C was 159 % of control.

As for `Cc1ccnc([N+](=O)[O-])c1`, the T/C under setting [3] was 103 % of control, the T/C under setting [5] is 92 % of control and the T/C under setting [7] is 106 % of control.

On to `C[CH2][Sb]([Cl])([CH2]C)([CH2]C)[O][Sb]([Cl])([CH2]C)([CH2]C)[CH2]C`, for which the T/C was 109 % of control (dose: 10.0 mg/kg/injection, schedule: Q01DX001 (ip), vehicle: saline); 114 % of control (dose: 20.0 mg/kg/injection, schedule: Q01DX001 (ip), vehicle: saline); 123 % of control (dose: 40.0 mg/kg/injection, schedule: Q01DX001 (ip), vehicle: saline).
